According to patent US12599597B2, “Substituted N-benzhydrylacetamide inhibitors of jumanji domain histone demethylases for the treatment of cancer” (University of Kentucky Research Foundation, priority 2020, dated 2026):

Tests used:
Assay in all cases: Histone demethylase assay, purified enzyme panel
Assay type in all cases: biochemical
Details in all cases: Reference inhibitor
JMJD2C (KDM4C) = molecular target: T1, JMJD2C (KDM4C) (Homo sapiens, UniProt Q9H3R0)
T1 sequence (Q9H3R0 1-1056): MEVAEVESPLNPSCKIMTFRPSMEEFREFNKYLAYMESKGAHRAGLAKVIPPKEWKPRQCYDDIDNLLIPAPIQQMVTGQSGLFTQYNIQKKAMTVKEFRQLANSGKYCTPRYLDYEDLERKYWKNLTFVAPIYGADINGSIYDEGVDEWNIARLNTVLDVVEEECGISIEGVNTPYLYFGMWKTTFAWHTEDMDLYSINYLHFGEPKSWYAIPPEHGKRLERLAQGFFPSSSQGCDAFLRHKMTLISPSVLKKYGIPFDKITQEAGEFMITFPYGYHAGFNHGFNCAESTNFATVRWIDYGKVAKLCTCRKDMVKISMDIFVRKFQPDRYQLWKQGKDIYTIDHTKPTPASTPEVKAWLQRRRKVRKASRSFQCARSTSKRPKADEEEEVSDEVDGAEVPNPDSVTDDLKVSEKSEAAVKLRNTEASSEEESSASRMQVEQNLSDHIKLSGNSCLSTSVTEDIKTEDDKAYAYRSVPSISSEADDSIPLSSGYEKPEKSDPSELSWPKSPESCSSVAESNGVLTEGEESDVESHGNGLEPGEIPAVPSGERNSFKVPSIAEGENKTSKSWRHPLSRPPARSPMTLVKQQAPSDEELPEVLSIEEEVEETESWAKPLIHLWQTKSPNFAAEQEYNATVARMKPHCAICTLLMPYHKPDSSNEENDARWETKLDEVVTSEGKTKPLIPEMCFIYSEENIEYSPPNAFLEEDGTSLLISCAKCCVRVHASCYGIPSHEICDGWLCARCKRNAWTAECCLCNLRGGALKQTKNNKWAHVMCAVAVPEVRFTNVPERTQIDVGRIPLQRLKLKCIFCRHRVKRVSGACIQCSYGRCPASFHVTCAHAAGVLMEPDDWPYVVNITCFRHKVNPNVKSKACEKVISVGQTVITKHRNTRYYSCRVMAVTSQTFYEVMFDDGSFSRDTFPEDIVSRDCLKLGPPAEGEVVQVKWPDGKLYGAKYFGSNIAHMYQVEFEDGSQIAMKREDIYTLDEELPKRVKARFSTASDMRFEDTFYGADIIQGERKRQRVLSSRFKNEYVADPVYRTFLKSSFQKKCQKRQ
Text: (§1) Histone Demethylase Assay
(§2) To further examine the effects of 58B1 on histone demethylase, we screened a panel of purified histone demethylases was screened.

FBXL10 (KDM2B) = molecular target: T2, FBXL10 (KDM2B) (Homo sapiens, UniProt Q8NHM5)
T2 sequence (Q8NHM5 1-1336): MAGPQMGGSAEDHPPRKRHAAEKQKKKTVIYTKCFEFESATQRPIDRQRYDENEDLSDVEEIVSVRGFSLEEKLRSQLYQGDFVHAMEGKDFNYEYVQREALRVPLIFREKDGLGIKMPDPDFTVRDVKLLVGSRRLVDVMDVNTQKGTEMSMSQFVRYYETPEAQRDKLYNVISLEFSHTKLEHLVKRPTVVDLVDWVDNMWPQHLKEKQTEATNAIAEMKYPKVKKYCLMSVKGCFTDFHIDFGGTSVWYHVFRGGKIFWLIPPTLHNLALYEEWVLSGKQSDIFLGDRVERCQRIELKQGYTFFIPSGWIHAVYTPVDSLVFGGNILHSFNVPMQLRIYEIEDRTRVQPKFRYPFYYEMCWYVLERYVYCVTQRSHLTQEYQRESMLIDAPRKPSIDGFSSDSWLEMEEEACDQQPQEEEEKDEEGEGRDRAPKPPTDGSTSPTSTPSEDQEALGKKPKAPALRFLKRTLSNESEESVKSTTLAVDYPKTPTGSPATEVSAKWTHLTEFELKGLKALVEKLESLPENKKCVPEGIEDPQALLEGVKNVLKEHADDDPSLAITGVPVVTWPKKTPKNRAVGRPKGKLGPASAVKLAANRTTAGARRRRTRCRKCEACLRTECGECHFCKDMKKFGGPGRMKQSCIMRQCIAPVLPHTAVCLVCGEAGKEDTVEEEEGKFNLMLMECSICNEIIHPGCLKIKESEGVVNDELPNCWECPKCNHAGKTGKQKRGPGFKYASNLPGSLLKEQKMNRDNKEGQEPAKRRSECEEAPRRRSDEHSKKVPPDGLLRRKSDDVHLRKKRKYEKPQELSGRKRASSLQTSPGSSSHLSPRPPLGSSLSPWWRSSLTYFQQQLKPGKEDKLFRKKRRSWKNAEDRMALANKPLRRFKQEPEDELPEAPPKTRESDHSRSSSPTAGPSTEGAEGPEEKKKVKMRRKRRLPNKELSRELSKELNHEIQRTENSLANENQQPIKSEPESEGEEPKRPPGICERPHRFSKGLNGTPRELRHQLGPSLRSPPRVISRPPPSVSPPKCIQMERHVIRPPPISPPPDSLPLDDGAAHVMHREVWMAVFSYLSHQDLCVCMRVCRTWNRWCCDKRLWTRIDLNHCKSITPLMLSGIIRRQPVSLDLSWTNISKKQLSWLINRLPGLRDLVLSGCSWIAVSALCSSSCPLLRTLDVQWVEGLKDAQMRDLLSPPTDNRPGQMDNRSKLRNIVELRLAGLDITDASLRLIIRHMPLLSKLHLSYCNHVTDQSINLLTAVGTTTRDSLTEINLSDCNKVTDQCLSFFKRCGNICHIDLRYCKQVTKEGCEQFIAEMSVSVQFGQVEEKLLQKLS
Text: as §1, §2

JMJD2A (KDM4A) = molecular target: T3, JMJD2A (KDM4A) (Homo sapiens, UniProt O75164)
T3 sequence (O75164 1-1064): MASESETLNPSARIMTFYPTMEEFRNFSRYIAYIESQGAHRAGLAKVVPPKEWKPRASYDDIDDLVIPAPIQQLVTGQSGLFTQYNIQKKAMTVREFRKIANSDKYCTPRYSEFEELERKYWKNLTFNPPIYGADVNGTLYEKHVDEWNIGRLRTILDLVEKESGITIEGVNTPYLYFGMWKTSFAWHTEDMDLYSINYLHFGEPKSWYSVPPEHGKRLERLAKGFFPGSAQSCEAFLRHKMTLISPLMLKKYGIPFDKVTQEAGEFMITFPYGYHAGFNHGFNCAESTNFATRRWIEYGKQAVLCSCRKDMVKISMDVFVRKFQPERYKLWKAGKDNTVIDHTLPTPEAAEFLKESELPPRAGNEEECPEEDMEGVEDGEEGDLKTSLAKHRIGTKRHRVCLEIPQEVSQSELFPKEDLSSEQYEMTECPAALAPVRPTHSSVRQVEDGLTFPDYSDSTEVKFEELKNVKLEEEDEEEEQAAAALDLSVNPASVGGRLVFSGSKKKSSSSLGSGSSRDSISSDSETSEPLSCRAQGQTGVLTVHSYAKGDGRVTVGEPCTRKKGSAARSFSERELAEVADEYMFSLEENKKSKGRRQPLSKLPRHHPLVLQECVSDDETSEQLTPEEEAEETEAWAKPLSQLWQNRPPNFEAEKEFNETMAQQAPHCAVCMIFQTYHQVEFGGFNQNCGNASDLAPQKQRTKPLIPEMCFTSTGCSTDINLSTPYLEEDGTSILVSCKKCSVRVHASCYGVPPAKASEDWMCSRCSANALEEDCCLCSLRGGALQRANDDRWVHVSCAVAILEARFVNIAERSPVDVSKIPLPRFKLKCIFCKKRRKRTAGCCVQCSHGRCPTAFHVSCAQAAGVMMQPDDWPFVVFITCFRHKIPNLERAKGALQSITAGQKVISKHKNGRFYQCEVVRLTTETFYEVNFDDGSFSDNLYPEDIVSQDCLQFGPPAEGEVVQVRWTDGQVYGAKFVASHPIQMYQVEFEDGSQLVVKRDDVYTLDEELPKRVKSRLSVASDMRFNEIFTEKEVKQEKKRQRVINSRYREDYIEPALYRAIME
Text: as §1, §2

O=C(O)c1ccnc(C(=O)O)c1 [2,4-Pyridine Dicarboxylic Acid, reference compound]
% Inhibition (JMJD2C (KDM4C)): 100% | % Inhibition (FBXL10 (KDM2B)): 99% | % Inhibition (JMJD2A (KDM4A)): 100%
